In brackets after ≈: the same amount, converted by molar mass.
Experiments:
Format in all cases: physicochemical
[1] = Hygroscopicity by dynamic vapor sorption (DVS) at 25° C.; settings: DVS at 25° C.
Procedure: Dynamic vapor sorption (DVS) was performed on an Intrinsic, Advantage or Adventure with an oven temperature of 25° C. using water as a solvent. The sample mass was about 5-10 mg using the following method: • Cycle: 40-0-95-0-40% RH • Stage Step: 10% • Equilibrium: 0.002 dm/dt (%/min) • Minimum dm/dt stability duration: 60 min • Maximum dm/dt stage time: 360 min. Hygroscopicity of free form Pattern B was evaluated by dynamic vapor sorption (DVS) test at 25° C. […] It absorbed about 0.8% water at 80% RH at 25° C.

[2] = Solubility at 37° C. in buffers and biorelevant media, XRPD of residual solid; settings: for XRPD of residual solid: 24 h; for solubility: thermodynamic from solid
Procedure: Solubility of BAL-0748 free form Pattern B was investigated in pH 1.2 HCl buffer, pH 4.5 50 mM acetate buffer, pH 6.8 50 mM phosphate buffer, water, pH 1.6 FaSSGF, pH 6.5 FaSSIF-v1, pH 5.0 FeSSIF-v1 and 2% HPMC+1% Pluronic F68 in pH 4.5 50 mM acetate buffer at 37° C. for 2 h and 24 h. Residual solids after the solubility test were analyzed by XRPD.
Solubility of the free form Pattern A, the HCl salt Pattern A, the phosphate salt Pattern A, and the sodium salt Pattern A was measured in pH 1.2 HCl buffer, pH 4.5 acetate buffer (50 mM), pH 6.8 phosphate buffer (50 mM), water, pH 1.6 FaSSGF, pH 6.5 FaSSIF-v1, pH 5.0 FeSSIF-v1, and 2% HPMC+1% Pluronic F68 in pH 4.5 acetate buffer (50 mM) at 37° C. for 2 hours and 24 hours.
10.4 mg of the free form Pattern A, 10.0 mg of the free form Pattern B, 10.8 mg of the HCl salt Pattern A, 12.2 mg of the phosphate salt Pattern A, or 10.5 mg of the sodium salt Pattern A was weighed into a 20 mL glass vial, respectively. 5 mL of solubility medium was added. The salt amount used was equivalent to 10 mg anhydrous free form. Obtained suspensions were stirred at 37° C. at 400 rpm and sampled at 2 hours and at 24 hours. The samples were centrifuged at 37° C. at 14,000 rpm for 5 min. Supernatants were analyzed by HPLC and PH meter for solubility and pH value, respectively. Residual solids (wet cakes) from the 24 hours samples were also characterized by XRPD to determine physical form.

[3] = Bulk stability (solid state, 1 week; HPLC, XRPD, IC, color); settings: 25° C./92.5% RH open, 40° C./75% RH open, 60° C. tight container
Procedure: Bulk stability of free form Pattern B was evaluated at 25° C./92.5% RH in an open container, at 40° C./75% RH in an open container and at 60° C. in a tight container over 1 week.

[4] = Exposure of Pattern C in ambient condition (variable temperature XRPD); settings: 23° C., 27% RH
Procedure: Pattern C is an anhydrate. It was obtained in variable temperature XRPD experiment by heating Pattern A to 100° C. under the nitrogen atmosphere. Pattern C is of high crystallinity. According to the DSC thermogram of Pattern A, Pattern C has a melting peak at Tonset of 134.2° C. Pattern C is a metastable form.

| SMILES | Hygroscopicity [1] | XRPD after DVS test [1] | Water absorbed at 80% RH ([1]; 80% RH) | XRPD of residual solid ([2]; FaSSGF, pH 1.6, 37° C.) | Form after the solubility test (XRPD) ([2]; most of media) | XRPD of residual solid ([2]; pH 1.2 HCl buffer, 37° C.) | solubility ([2]; other media (pH 4.5 acetate, pH 6.8 phosphate, water, FaSSIF-v1, HPMC/Pluronic), 37° C., 2 h and 24 h) | solubility ([2]; pH 1.2 HCl buffer, pH 1.6 FaSSGF and pH 5.0 FeSSIF-v1, 37° C.) | Bulk stability, chemical and physical [3] | Degradation by HPLC [3] | Form change by XRPD [3] | Form conversion after exposure in ambient condition [4] |
| --- | --- | --- | --- | --- | --- | --- | --- | --- | --- | --- | --- | --- |
| CCOc1cc(C(=O)N(C)Cc2cnc(CO)c3cn[nH]c23)ccc1-c1cc(F)cc(F)c1 [Free form Pattern B, 2-ethoxy-3′,5′-difluoro-N-((4-(hydroxymethyl)-1H-pyrazolo[4,3-c]pyridin-7-yl)methyl)-N-methyl-[1,1′-biphenyl]-4-carboxamide] | slightly hygroscopic | still Pattern B | about 0.8% | hemi-HCl salt Pattern A | no form change or partially converted to free form Pattern A | Mono-HCl salt Pattern A | 2 to 80 µg/mL (≈ 4.42 to 177 µM) | 100 to 600 µg/mL (≈ 221 to 1330 µM) | physically and chemically stable | no obvious degradation | no form change | – |
| CCOc1cc(C(=O)N(C)Cc2cnc(CO)c3cn[nH]c23)ccc1-c1cc(F)cc(F)c1 [Pattern C, 2-ethoxy-3′,5′-difluoro-N-((4-(hydroxymethyl)-1H-pyrazolo[4,3-c]pyridin-7-yl)methyl)-N-methyl-[1,1′-biphenyl]-4-carboxamide] | – | – | – | – | – | – | – | – | – | – | – | converted to Pattern A |

Reference: patent publication US20250084080A1, “CRYSTALLINE AND SALT FORMS OF AN NLRP3 INHIBITOR” (BioAge Labs, Inc., priority 2023, published 2025)
